Reference: US20200024246A1, “POGOSTONE DERIVATIVES AND METHODS OF USING THE SAME” (Hamyard Associates LLC, priority 2018, published 2020)
Entries after “also recorded” stand apart in the source; their conditions may differ. Read-outs that look alike come from different tables or passages of the source.

What was measured:
[1] = test system: adult female Aedes aegypti; test: Topical combination of Formula 13 with synthetic insecticides (FIGS. 6-9); type: in vivo
Procedure: A low-dose concentration of Formula 13 (500 μg/mL) was applied in combination with chlorfenapyr (75 μg/mL), dibrom (10 μg/mL), thiamethoxam (100 μg/mL), and permethrin (2.5 μg/mL) to the pronotum of adult female Aedes aegypti in 0.2 μL of acetone. These concentrations were chosen as they produced little-to-no mortality at 24 hours after application. Knockdown (immobilization) was recorded at 1 hour after application and mortality was recorded at 24, 48, and 72 hours after initial application. These applications were run in parallel to a topical application of a combined mixture of 500 μg/mL Formula 13 and 75 μg/mL of chlorfenpayr to the pronotum of adult female mosquitoes. For this experiment, total of 25 mosquitoes were treated within each replicate, with a minimum of 3 replicates utilized for each treatment. Synergism was defined as the higher percentage mortality in the insecticidal combination of both Formula 13 and chlorfenapyr compared to each individual component applied by itself.

adult, female mosquitoes = test: Topical application on adult female mosquitoes (24-h mortality, 1-h knockdown); type: in vivo, mosquito; conditions: for ED50: read-out: KD50 (ug/g mosquito); for LD50: read-out: LD50 (ug/g mosquito); for insecticidal properties compared with natural pogostone, natural pyrethrins or terpenoids: words, refers to Table 1
[2] = test system: 3-4 instar Aedes aegypti larvae; test: Mosquito larvicide bioassay; type: in vivo
Procedure: Mosquito larvicide bioassays were performed by introducing various concentrations of test compounds (pyrone derivatives and rotenone) into acetone at various concentrations. 200 uL of these solutions were added to individual cups containing 10, 3-4 instar Aedes aegypti larvae and 25 mL of DI water. 2 mg of Tetramin™ was provided to each cup as a food source. […] Ataxia was used as the indicator of larval mortality. At least 5 concentrations were used which caused between 10 and 90% mortality. LC50 values were calculated using a PROC PROBIT model in SAS 9.4.

adult female mosquitoes = test: whole plant or invertebrate; conditions: for LD50: topical, 24 h, read-out: 24-hour Mortality LD50 (μg/g mosquito)
Procedure: The first group of DHAA-based derivatives that were tested included Formula A2, Formula B3, Formula C3, and Formula D3. A solution of 0.5% or 1.5% of each of these compounds was applied to the mosquitoes, as described above. […] Acetone was used as a control.

adult house flies [3] = test: Topical application of pogostone derivatives with PBO or plant essential oil on house flies; type: in vivo, house fly
Procedure: Combinations of select pogostone derivatives with select concentrations of PBO or plant essential oils was performed. […] Synergists were applied as a subsequent application directly after the application of pogostone derivatives. Concentrations of synergists (plant oils or PBO) were chosen that produced no mortality at 24 hours when applied alone.
To assess the ability of PBO to increase the toxicity of a wide variety of pogostone derivatives, PBO and the pogostone derivatives were applied in combination to the pronotum of house flies.
Finally, the potential of plant essential oils to synergize the effect of Formula 30 was assessed.

house flies [4] = test: Topical application on house flies
house flies [5] = test: Knockdown and mortality of DHAA-based derivatives on house flies; type: in vivo, house fly
Description: Accordingly, further derivatives with structures similar to Formula C3 were synthesized and tested for knockdown potential and mortality in house flies and mosquitoes using an experimental design similar to the one described above. These compounds include Formula C5, Formula C6, Formula C7, Formula C8, Formula C9, and Formula C10.

adult house flies [6] = test: House fly feeding assay (choice assay, FIG. 5); type: in vivo; conditions: 15% w/w in fly food, total mortality at 5 days
Description: Formulas 13, 17, 24, 26, 10, 27, and 29 and control (acetone and boric acid) were incorporated into 2 g of house fly food (1:1 dry milk and sucrose) at rate of 15%. Specifically, approximately 20-30 adult house flies ( ) were introduced into aquaria with a French square filled with de-ionized water. Cotton dental wicks were used to draw water up and present it to flies at the top of the French square. Compounds were introduced at a concentration of (15% w/w food) into 1:1 mixtures of evaporated milk powder and sucrose. MUSCALURE™, a potent house fly attractant/pheromone used in various house fly bait products, was also added to this mixture of bait and food at a concentration of 0.5% w/w food. Two grams of food mixed with compound was provided to house flies in each assay. Another 2 g of just fly food (no compound) was provided at the other end of the assay chamber to serve as untreated source of food. This was done to assess the ability of flies to feed on the treated food source (palatability). If acetone was used as the carrier throughout the experiment, the food was carefully stirred repeatedly to ensure evaporation so that no more acetone was present in the food. Total mortality was assessed at 5 days after introducing house flies into individual mason jars with food treated with different compounds.

[7] = Mosquito Knockdown Properties (1 hour), topical application
[8] = Mosquito Toxicity (24 hours), topical application to pronotum

SMILES: CC1(C)C(C=C(Cl)Cl)C1C(=O)OCc1cccc(Oc2ccccc2)c1 (racemic) [Permethrin, 3-phenoxybenzyl (1RS)-cis,trans-3-(2,2-dichlorovinyl)-2,2-dimethylcyclopropanecarboxylate]
- 24-hr percentage mortality ([1]; 0.2 μL acetone, Formula 13 500 μg/mL, dibrom 10 μg/mL, thiamethoxam 100 μg/mL, permethrin 2.5 μg/mL, alone or in combination): 28%

SMILES: CCOC(=O)/C(C(C)=O)=C(/O)c1ccccc1 [Formula 28]
- ED50 (adult, female mosquitoes; topical, 1 h): > 1500 mg/kg
- LD50 (adult, female mosquitoes; topical, 24 h): > 1500 mg/kg
- LC50 ([2]; Aedes aegypti, 24 h): 9.16 µg/mL
- larvicidal properties compared with natural pogostone or rotenone ([2]; words): possessed better larvicidal properties than natural pogostone

SMILES: O=C(c1c(O)c2ccccc2oc1=O)C1CCC1 [Formula 27]
- ED50 (adult, female mosquitoes; topical, 1 h): > 1500 mg/kg
- LD50 (adult, female mosquitoes; topical, 24 h): 28.8 mg/kg
- insecticidal properties compared with natural pogostone, natural pyrethrins or terpenoids (adult, female mosquitoes): possessed better insecticidal properties at least as well as natural pyrethrins
- 1-hour Knockdown EC50 (μg/g mosquito) (adult female mosquitoes; in vivo): >1500 μg/g mosquito
- LD50 (adult female mosquitoes): 29 mg/kg

SMILES: CC(C)C(=O)c1c(O)c2cc(F)ccc2oc1=O [Formula 30]
- ED50 (adult, female mosquitoes; [7]): > 1500 mg/kg
- LD50 (adult, female mosquitoes; [8]): 45.6 mg/kg
- insecticidal properties compared with natural pogostone, natural pyrethrins or terpenoids (adult, female mosquitoes): possessed better insecticidal properties than natural pogostone
- toxicity of Formula 30 in combination with cedarwood (Texas type) oil (CWT) (adult house flies [3]; 1% CWT, dose-response curves FIG. 11): significant increase in toxicity; also recorded: shifting the dose-response curve to the left
- toxicity of Formula 30 in combination with PBO (adult house flies [3]; 1% PBO, dose-response curves FIG. 11): significant increase in toxicity; also recorded: shifting the dose-response curve to the left
- LD50 (adult house flies [3]; house flies, topical, derivative alone or in combination with PBO): 645 µg/g
- LD50 (ug/g fly) (house flies [4]; House Fly Toxicity, topical): 645 ug/g fly
- toxicity to house flies (house flies [4]; words): extremely effective at killing house flies

SMILES: COCC(=O)c1c(O)cc(C)oc1=O [Formula C9]
- Mosquito Knockdown at 0.5% concentration (adult female mosquitoes): 37%
- Mosquito Mortality at 0.5% concentration (adult female mosquitoes): 73%
- Mosquito Knockdown at 1.5% concentration (adult female mosquitoes): 53%
- Mosquito Mortality at 1.5% concentration (adult female mosquitoes): 70%
- House Fly Knockdown at 0.5% concentration (house flies [5]): 0%
- House Fly Mortality at 0.5% concentration (house flies [5]): 5%
- House Fly Knockdown at 1.5% concentration (house flies [5]): 1%
- House Fly Mortality at 1.5% concentration (house flies [5]): 6%

SMILES: Cc1ccc(C(C)C)cc1O [Carvacrol, reference compound]
- ED50 (adult, female mosquitoes; topical, 1 h): 2000 mg/kg
- LD50 (adult, female mosquitoes; topical, 24 h): 3400 mg/kg
- LD50 (adult female mosquitoes): 3400 mg/kg

SMILES: CCCCCCCC(=O)c1c(O)c2ccccc2oc1=O [Formula 25]
- ED50 (adult, female mosquitoes; topical, 1 h): > 1500 mg/kg
- LD50 (adult, female mosquitoes; topical, 24 h): > 1500 mg/kg

SMILES: CCOCn1c(-c2ccc(Cl)cc2)c(C#N)c(Br)c1C(F)(F)F [chlorfenapyr, 4-bromo-2-(4-chlorophenyl)-1-ethoxymethyl-5-trifluoromethylpyrrol-3-carbonitrile]
- percentage mortality at 24 hour ([1]; chlorfenapyr 75 ug/mL, Formula 13 500 ug/mL, alone or combined, words): very low mortality

SMILES: CCC(=O)c1c(O)cc(C)oc1=O [Formula 7]
- ED50 (adult, female mosquitoes; [7]): > 1500 mg/kg
- LD50 (adult, female mosquitoes; [8]): > 1500 mg/kg

SMILES: Cc1cc(O)c(C(=O)CSCC(=O)O)c(=O)o1 [Formula C6]
- Mosquito Knockdown at 0.5% concentration (adult female mosquitoes): 27%
- Mosquito Mortality at 0.5% concentration (adult female mosquitoes): 43%
- Mosquito Knockdown at 1.5% concentration (adult female mosquitoes): 18%
- Mosquito Mortality at 1.5% concentration (adult female mosquitoes): 15%
- House Fly Knockdown at 0.5% concentration (house flies [5]): 2.5%
- House Fly Mortality at 0.5% concentration (house flies [5]): 10%
- House Fly Knockdown at 1.5% concentration (house flies [5]): 7%
- House Fly Mortality at 1.5% concentration (house flies [5]): 6%

SMILES: O=C(CCc1ccccc1)c1c(O)c2ccccc2oc1=O [Formula 24]
- ED50 (adult, female mosquitoes; topical, 1 h): > 1500 mg/kg
- LD50 (adult, female mosquitoes; topical, 24 h): > 1500 mg/kg
- mortality compared with boric acid (adult house flies [6]): performed similarly to boric acid

SMILES: CC(=O)C1=Cc2ccccc2OC1 [Formula 16]
- LD50 (adult, female mosquitoes; topical, 24 h): > 1500 mg/kg
